Experimental data: ChEMBL document CHEMBL4387786, “Mallopenins A-E, Antibacterial Phenolic Derivatives from the Fruits of Mallotus philippensis” (2019)
Values after ≈ are worked out from the molar mass of the structure shown.

Experiments:
Pseudomonas aeruginosa = test: Antibacterial activity against Pseudomonas aeruginosa by CLSI guideline based broth microdilution method; format: functional
[1] = system: Staphylococcus epidermidis; test: Antibacterial activity against Staphylococcus epidermidis by CLSI guideline based broth microdilution method; format: functional
Shigella flexneri = test: Antibacterial activity against Shigella flexneri by CLSI guideline based broth microdilution method; format: functional
Bacillus cereus = test: Antibacterial activity against Bacillus cereus by CLSI guideline based broth microdilution method; format: functional
Streptococcus mutans = test: Antibacterial activity against Streptococcus mutans by CLSI guideline based broth microdilution method; format: functional
Escherichia coli = test: Antibacterial activity against Escherichia coli by CLSI guideline based broth microdilution method; format: functional
Micrococcus luteus = test: Antibacterial activity against Micrococcus luteus by CLSI guideline based broth microdilution method; format: functional
Salmonella typhimurium = test: Antibacterial activity against Salmonella typhimurium by CLSI guideline based broth microdilution method; format: functional, Salmonella enterica subsp. enterica serovar Typhimurium
Staphylococcus aureus = test: Antibacterial activity against Staphylococcus aureus by CLSI guideline based broth microdilution method; format: functional

CC(=O)c1c(O)c(C)c(O)c(Cc2c(O)c(CC=C(C)C)c(O)c3c2OC(c2ccccc2)CC3=O)c1O (centres undefined)
MIC (Pseudomonas aeruginosa): > 100 µM | MIC [1]: > 100 µM | MIC (Shigella flexneri): > 100 µM | MIC (Bacillus cereus): 30.9 µM (≈ 16 µg/mL) | MIC (Streptococcus mutans): 30.9 µM (≈ 16 µg/mL) | MIC (Escherichia coli): 30.9 µM (≈ 16 µg/mL) | MIC (Micrococcus luteus): 30.9 µM (≈ 16 µg/mL) | MIC (Salmonella typhimurium; Salmonella enterica): > 100 µM | MIC (Staphylococcus aureus): 61.8 µM (≈ 32 µg/mL)

COCc1c2c(c(O)c3c1O[C@H](c1ccccc1)CC3=O)C=CC(C)(C)O2
MIC (Pseudomonas aeruginosa): > 100 µM | MIC [1]: > 100 µM | MIC (Shigella flexneri): > 100 µM | MIC (Bacillus cereus): > 100 µM | MIC (Streptococcus mutans): > 100 µM | MIC (Escherichia coli): > 100 µM | MIC (Micrococcus luteus): > 100 µM | MIC (Salmonella typhimurium; Salmonella enterica): > 100 µM | MIC (Staphylococcus aureus): > 100 µM

CC(=O)c1c(O)c(C)c(O)c(Cc2c3c(c(O)c4c2OC(c2ccccc2)CC4=O)C=CC(C)(C)O3)c1O (centres undefined)
MIC (Pseudomonas aeruginosa): > 100 µM | MIC [1]: > 100 µM | MIC (Shigella flexneri): > 100 µM | MIC (Bacillus cereus): > 100 µM | MIC (Streptococcus mutans): > 100 µM | MIC (Escherichia coli): > 100 µM | MIC (Micrococcus luteus): > 100 µM | MIC (Salmonella typhimurium; Salmonella enterica): > 100 µM | MIC (Staphylococcus aureus): > 100 µM

CC(=O)c1c(O)c(C)c(O)c(Cc2c(O)c3c(c(C(=O)/C=C/c4ccc(O)cc4)c2O)OC(C)(C)C=C3)c1O
MIC (Pseudomonas aeruginosa): > 100 µM | MIC [1]: > 100 µM | MIC (Shigella flexneri): > 100 µM | MIC (Bacillus cereus): 3.8 µM (≈ 2.02 µg/mL) | MIC (Streptococcus mutans): 3.8 µM (≈ 2.02 µg/mL) | MIC (Escherichia coli): 7.5 µM (≈ 3.99 µg/mL) | MIC (Micrococcus luteus): 30.1 µM (≈ 16 µg/mL) | MIC (Salmonella typhimurium; Salmonella enterica): > 100 µM | MIC (Staphylococcus aureus): 15 µM (≈ 7.99 µg/mL)

CC(=O)c1c(O)c(C)c(O)c(Cc2c(O)c3c(c(C(=O)/C=C/c4ccccc4)c2O)OC(C)(C)C=C3)c1O [ROTTLERIN]
MIC (Pseudomonas aeruginosa): > 100 µM | MIC [1]: > 100 µM | MIC (Shigella flexneri): > 100 µM | MIC (Bacillus cereus): 15.5 µM (≈ 8.01 µg/mL) | MIC (Streptococcus mutans): 15.5 µM (≈ 8.01 µg/mL) | MIC (Escherichia coli): 15.5 µM (≈ 8.01 µg/mL) | MIC (Micrococcus luteus): 15.5 µM (≈ 8.01 µg/mL) | MIC (Salmonella typhimurium; Salmonella enterica): > 100 µM | MIC (Staphylococcus aureus): 15.5 µM (≈ 8.01 µg/mL)

CC(C)=CCC/C(C)=C/Cc1c(O)c2c(c(C(=O)/C=C/c3ccccc3)c1O)OC(C)(C)C=C2
MIC (Pseudomonas aeruginosa): > 100 µM | MIC [1]: > 100 µM | MIC (Shigella flexneri): > 100 µM | MIC (Bacillus cereus): > 100 µM | MIC (Streptococcus mutans): > 100 µM | MIC (Escherichia coli): > 100 µM | MIC (Micrococcus luteus): > 100 µM | MIC (Salmonella typhimurium; Salmonella enterica): > 100 µM | MIC (Staphylococcus aureus): > 100 µM

GENTAMICIN
MIC (Pseudomonas aeruginosa): 1 µM | MIC (Shigella flexneri): 1 µM | MIC (Escherichia coli): 0.5 µM | MIC (Salmonella typhimurium; Salmonella enterica subsp. enterica serovar Typhimurium): 1 µM

CC1(C)C=Cc2c(O)c3c(c(CC(=O)O)c2O1)O[C@H](c1ccccc1)CC3=O
MIC (Pseudomonas aeruginosa): > 100 µM | MIC [1]: > 100 µM | MIC (Shigella flexneri): > 100 µM | MIC (Bacillus cereus): > 100 µM | MIC (Streptococcus mutans): > 100 µM | MIC (Escherichia coli): > 100 µM | MIC (Micrococcus luteus): > 100 µM | MIC (Salmonella typhimurium; Salmonella enterica): > 100 µM | MIC (Staphylococcus aureus): > 100 µM

CC(=O)c1c(O)c(CC=C(C)C)c2c3c1OC1(C)CCC(C3C1)C(C)(C)O2 (racemic)
MIC (Pseudomonas aeruginosa): > 100 µM | MIC [1]: > 100 µM | MIC (Shigella flexneri): > 100 µM | MIC (Bacillus cereus): > 100 µM | MIC (Streptococcus mutans): > 100 µM | MIC (Escherichia coli): > 100 µM | MIC (Micrococcus luteus): > 100 µM | MIC (Salmonella typhimurium; Salmonella enterica): > 100 µM | MIC (Staphylococcus aureus): > 100 µM

CN[C@H](CC(C)C)C(=O)N[C@H]1C(=O)N[C@@H](CC(N)=O)C(=O)N[C@H]2C(=O)N[C@H]3C(=O)N[C@H](C(=O)N[C@H](C(=O)O)c4cc(O)cc(O)c4-c4cc3ccc4O)[C@H](O)c3ccc(c(Cl)c3)Oc3cc2cc(c3O[C@@H]2O[C@H](CO)[C@@H](O)[C@H](O)[C@H]2O[C@H]2C[C@](C)(N)[C@H](O)[C@H](C)O2)Oc2ccc(cc2Cl)[C@H]1O [VANCOMYCIN]
MIC [1]: 0.2 µM (≈ 0.29 µg/mL) | MIC (Bacillus cereus): 0.1 µM (≈ 0.145 µg/mL) | MIC (Streptococcus mutans): 0.2 µM (≈ 0.29 µg/mL) | MIC (Micrococcus luteus): 0.2 µM (≈ 0.29 µg/mL) | MIC (Staphylococcus aureus): 0.2 µM (≈ 0.29 µg/mL)

CC(C)=CCc1c(O)c(C(=O)/C=C/c2ccccc2)c2c(c1O)[C@H]1[C@@H]3[C@@H](CC[C@]3(C)O2)C1(C)C
MIC (Pseudomonas aeruginosa): > 100 µM | MIC [1]: > 100 µM | MIC (Shigella flexneri): > 100 µM | MIC (Bacillus cereus): > 100 µM | MIC (Streptococcus mutans): > 100 µM | MIC (Escherichia coli): > 100 µM | MIC (Micrococcus luteus): > 100 µM | MIC (Salmonella typhimurium; Salmonella enterica): > 100 µM | MIC (Staphylococcus aureus): > 100 µM

CC(=O)c1c(O)c(C)c(O)c(Cc2c3c(c(O)c4c2OC(c2ccc(O)cc2)CC4=O)C=CC(C)(C)O3)c1O (centres undefined)
MIC (Pseudomonas aeruginosa): > 100 µM | MIC [1]: > 100 µM | MIC (Shigella flexneri): > 100 µM | MIC (Bacillus cereus): 30.1 µM (≈ 16 µg/mL) | MIC (Streptococcus mutans): > 100 µM | MIC (Escherichia coli): > 100 µM | MIC (Micrococcus luteus): > 100 µM | MIC (Salmonella typhimurium; Salmonella enterica): > 100 µM | MIC (Staphylococcus aureus): > 100 µM
